What was measured:
[1] = molecular target: T1, HCV NS5B (Hepatitis C virus genotype 1b, UniProt Q9WMX2); test: Inhibition of viral RNA-dependent RNA polymerase (RdRp), in vitro biochemical assay; design: species or system HCV genotype 1b virus (BB7); details: HCV NS5B RdRp, BB7; reported as range class; read-out: HCV pol-BB7 IC50
T1 construct: fusion protein, of which the carboxyl terminal 21 amino acids were removed to enhance its solubility; His tag (GSHHHHHH); made in house; host or cells: E. coli
Procedure, shortened: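 IC50 values are the concentrations that halve in vitro RNA synthesis by HCV NS5B polymerase. The enzyme was a C-terminally truncated (Δ21), His-tagged genotype 1b (BB7 consensus) protein purified from E. coli.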

[2] = system: HCV replicon (BB7 sequence) in Huh-7-Clone A cells; test: HCV replicon assay: ELISA of NS5A protein in replicon-containing cells (Inhibition of Viral RNA Replication); assay type: cell-based; details: Hepatitis C virus; HCV replicon, range of EC50; read-out: Replicon
Procedure, shortened: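 EC50 taken from an 8-point serially diluted dose curve, with NS5A level as read-out: fixed cells probed with primary monoclonal and HRP-conjugated secondary, TMB developed 30 min, OD 650 nm. Compound exposure 72 h in Huh-7-Clone A replicon cells (BB7 sequence).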

| Structure (SMILES) | IC50 [1] [nM] | EC50 [2] [nM] |
| --- | --- | --- |
| CNC(=O)c1c(-c2ccc(F)cc2)oc2cc(-c3noc(C)n3)c(OC(C)C)cc12 [Example 198, 2-(4-Fluoro-phenyl)-5-isopropoxy-6-(5-methyl-[1,2,4]oxadiazol-3-yl)-benzofuran-3-carboxylic acid methylamide] | ≤ 500 | < 1000 |
| CC(C)Oc1cc2c(C(=O)NC3CC3)c(-c3ccc(F)cc3)oc2cc1NS(C)(=O)=O [Example 199, 2-(4-Fluoro-phenyl)-5-isopropoxy-6-methanesulfonylamino-benzofuran-3-carboxylic acid cyclopropylamide] | ≤ 500 | < 1000 |
| CCNC(=O)c1c(-c2ccc(F)cc2)oc2cc(NS(C)(=O)=O)c(OC(C)C)cc12 [Example 200, 2-(4-Fluoro-phenyl)-5-isopropoxy-6-methanesulfonylamino-benzofuran-3-carboxylic acid ethylamide] | ≤ 500 | < 1000 |
| CNC(=O)c1c(-c2ccc(F)cc2)oc2cc(N3CCOCC3)c(OCc3csc(C)n3)cc12 [Example 201, 2-(4-Fluoro-phenyl)-5-(2-methyl-thiazol-4-ylmethoxy)-6-morpholin-4-yl-benzofuran-3-carboxylic acid methylamide] | ≤ 500 | < 1000 |
| CNC(=O)c1c(-c2ccc(F)cc2)oc2cc(C(C)(C)O)c(OC(C)C)cc12 [Example 202, 2-(4-Fluoro-phenyl)-6-(1-hydroxy-1-methyl-ethyl)-5-isopropoxy-benzofuran-3-carboxylic acid methylamide] | ≤ 500 | < 1000 |
| CNC(=O)c1c(-c2ccc(F)cc2)oc2cc(N3CCOCC3)c(OCc3noc(-c4c(C)noc4C)n3)cc12 [Example 203, 5-[5-(3,5-Dimethyl-isoxazol-4-yl)-[1,2,4]oxadiazol-3-ylmethoxy]-2-(4-fluoro-phenyl)-6-morpholin-4-yl-benzofuran-3-carboxylic acid methylamide] | 500 to 5000 | < 10000 |
| CNC(=O)c1c(-c2ccc(F)cc2)oc2cc(N3CCOCC3)c(OCc3noc(C(C)(C)C)n3)cc12 [Example 204, 5-(5-tert-Butyl-[1,2,4]oxadiazol-3-ylmethoxy)-2-(4-fluoro-phenyl)-6-morpholin-4-yl-benzofuran-3-carboxylic acid methylamide] | ≤ 500 | < 1000 |
| CNC(=O)c1c(-c2ccc(F)cc2)oc2cc(-c3ncon3)c(OC(C)C)cc12 [Example 205, 2-(4-Fluoro-phenyl)-5-isopropoxy-6-[1,2,4]oxadiazol-3-yl-benzofuran-3-carboxylic acid methylamide] | ≤ 500 | < 1000 |
| CNC(=O)c1c(-c2ccc(F)cc2)oc2cc(N3CCOCC3)c(OCc3nsc(Cl)n3)cc12 [Example 206, 5-(5-Chloro-[1,2,4]thiadiazol-3-ylmethoxy)-2-(4-fluoro-phenyl)-6-morpholin-4-yl-benzofuran-3-carboxylic acid methylamide] | 500 to 5000 | < 1000 |
| CNC(=O)c1c(-c2ccc(F)cc2)oc2cc(N3CCOCC3)c(OCc3nnc(-c4ccc(C)cc4)o3)cc12 [Example 207, 2-(4-Fluoro-phenyl)-6-morpholin-4-yl-5-(5-p-tolyl-[1,3,4]oxadiazol-2-ylmethoxy)-benzofuran-3-carboxylic acid methylamide] | 5000 to 30000 | < 10000 |
| CNC(=O)c1c(-c2ccc(F)cc2)oc2cc(O)c(OC)cc12 [Example 208, 2-(4-Fluoro-phenyl)-6-hydroxy-5-methoxy-benzofuran-3-carboxylic acid methylamide] | 500 to 5000 | < 30000 |
| CNC(=O)c1c(-c2ccc(F)cc2)oc2cc(N3CCOCC3)c(OCc3nnnn3C)cc12 [Example 209, 2-(4-Fluoro-phenyl)-5-(1-methyl-1H-tetrazol-5-ylmethoxy)-6-morpholin-4-yl-benzofuran-3-carboxylic acid methylamide] | 500 to 5000 | < 10000 |
